According to patent publication US10358531B2, “Crosslinked polymer nano-assemblies and uses thereof” (University of Massachusetts, priority 2011, dated 2019):

Key:
HeLa cells [1] = assay: Toxicity of PTX-loaded carriers, Alamar Blue assay; type: cell-based; conditions: 72 h, 10 μM PTX
Method: (§1) Selective delivery of chemotherapeutic drug. To test whether the observed target selectivity would translate into differential cell kill efficiency, the ligand-coated nanogels encapsulating a chemotherapeutic drug molecule, paclitaxel (PTX) were prepared. The PTX-loaded polymeric aggregates (polymer-PTX), NG (NG-PTX) and NG-RGD (NG-RGD-PTX) were added to MCF7 cells and HeLa cells and the extent of cell death was investigated after 72 h. […] This supports the hypothesis that the polymeric micellar aggregates have a leaky nature, which leads to free drug being translocated through the cellular membrane. […] This is consistent with the observed slow internalization of nanogels, which should result in a reduced amount of chemotherapeutic inside the cells.
(§2) Cell culture: The cell viabilities of the nanogels were tested with 293T cells. 293T cells were cultured in T75 cell culture flasks using Dulbecco's Modified Eagle Medium/Nutrient Mixture F-12 (DMEM/F12) with 10% fetal bovine serum (FBS) supplement. […] Cell viability was measured using the Alamar Blue assay with each data point measured in triplicate. Fluorescence measurements were made using the plate reader SpectraMax M5 by setting the excitation wavelength at 560 nm and monitoring emission at 590 nm on a black well plate. […] Cell death was measured by the Alamar Blue assay in triplicate.

MCF7 cells = assay: Toxicity of PTX-loaded carriers, Alamar Blue assay; type: cell-based; conditions: MCF7, 72 h, 10 μM PTX
Method: as §1, §2

MCF-7 cells = assay: Cell uptake of free Dox and Dox-loaded nanogels by confocal microscopy; type: cell-based; conditions: 20 μM Dox concentration, 3-4 h
Method: For further study, the cell uptake of both free Dox and Dox-loaded nanogels (20 μM Dox concentration) was monitored using confocal microscopy over time. Initial internalization of Dox was observed within 3 h for free Dox and NG3-Dox, but not until 4 h for NG1-Dox (FIG. 9c-g). […] This is presumably the reason that the two nanogels show similar toxicities.
Laser Scanning Confocal Microscopy: The laser confocal experiment was performed with MCF-7 cells. MCF-7 cells were cultured in T75 cell culture flask containing DMEM/F12 with 10% FBS supplement. The cells were seeded at 10,000 cells/100 μL in cover slip-bottomed Petri dishes and allowed to grow for 3 days at 37° C. in a 5% CO2 incubator. The cells in 2 mL of culture medium were treated with 200 μL of nanogels containing two dyes or doxorubicin and incubated at 37° C. for different time intervals before monitoring the cells by confocal microscopy.

HeLa cells [2] = assay: Intracellular delivery of DiI and FITC-β-gal by confocal microscopy; type: cell-based; conditions: without nanogel
Method: Intracellular delivery of DiI and β-gal was also tested. As the nanogels consist of biodegradable disulfide crosslinkers, the release of the complexed protein and encapsulated lipophilic molecule can be triggered upon exposure to glutathione (present at higher concentrations inside the cells (mM), compared to the extracellular concentration […]). To compare the release profile of these dual delivery systems, NG1-CRRR and NG2-CRRR containing DiI in its interior and complexed with FITC labeled β-gal, were added to HeLa cells with serum and without serum. In the case of cell internalization of both encapsulated DiI and FITC labeled protein, a yellow color would be observed due to the co-localization and overlay of both red and green fluorophores for DiI and FITC, respectively. If there is no internalization of the nanogel, no color could be observed.
Fluorescence distribution of DiI and FITC was observed over time by confocal fluorescence microscopy with simultaneous excitation of both dye molecules at 488 nm and 543 nm for FITC and DiI, respectively. As shown in FIGS. 33a and 33b, green and red emissions were observed when the cells were treated with the nanogel-protein complexes. […] The green fluorescence of the FITC (label for protein) and red fluorescence for DiI (encapsulated small molecule) appear uniformly distributed. […]

[3] = DLS size of NG-CRRR nanogels, β-gal and complexes; estimated numbers per complex; type: physicochemical
From the text: Also evaluated were the size change and charge alteration of the nanogel surface due to the complexation event using DLS and zeta potential measurements respectively.

CC(=O)O[C@H]1C(=O)[C@@]2(C)[C@H]([C@H](OC(=O)c3ccccc3)[C@]3(O)C[C@H](OC(=O)[C@H](O)[C@@H](NC(=O)c4ccccc4)c4ccccc4)C(C)=C1C3(C)C)[C@]1(OC(C)=O)CO[C@@H]1C[C@@H]2O [free PTX, paclitaxel]
toxicity (cell death) (HeLa cells [1]): highly toxic
toxicity (cell death) (MCF7 cells): highly toxic

COc1cccc2c1C(=O)c1c(O)c3c(c(O)c1C2=O)C[C@@](O)(C(=O)CO)C[C@@H]3O[C@H]1C[C@H](N)[C@H](O)[C@H](C)O1 [free Dox, doxorubicin]
intracellular localization of Dox (MCF-7 cells): significant accumulation in the nucleus

FITC-β-gal: β-gal functionalized with fluorescein
intracellular delivery of protein alone (HeLa cells [2]): no fluorescence

β-gal: β-galactosidase (pI: 4.8, from E. coli), the model protein
hydrodynamic diameter [3]: ~10 nm
intracellular delivery of protein alone (HeLa cells [2]): not efficient
